According to paper PMC6336804, “Identification of selective inhibitors of Helicobacter pylori IMPDH as a targeted therapy for the infection” (Scientific Reports, 2019):
Like-named read-outs stand apart in the source and are kept apart here.

Assays:
HpIMPDH [1] = target: T1, HpIMPDH (Helicobacter pylori, UniProt P56088); assay: HpIMPDH enzyme inhibition assay (NADH fluorescence); type: biochemical
T1 construct: His tag; made in house; host or cells: E. coli Rosetta(DE3) pLysS, pET-28a(+)
Procedure: To calculate the IC50 values, the initial velocity of the reaction is plotted against concentrations of the small molecule inhibitor, and the data is fitted with the Hill equation.
Similar to enzyme kinetic studies, these were also determined by monitoring NADH concentration through the fluorescence measurement. In the presence of IMPDH inhibitor, decreased catalytic activity of the enzyme reduces the formation of NADH. […] The production of NADH was monitored by measuring fluorescence at 440 nm when excited at 340 nm using PerkinElmer EnVision Multilabel Reader (Perkin Elmer, Inc., MA, USA) at 37 °C. In these assays C91 was used as a positive control.
IC50 values for all compounds were calculated with the help of software GraphPad Prism. The equation applied was:2 Y=Bottom+(Top−Bottom)/1+10^((LogIC50−X)∗HillSlope)

HpIMPDH [2] = target: T1, HpIMPDH; assay: Mechanism of HpIMPDH inhibition, kinetic studies with varying IMP or NAD+ (Lineweaver-Burk); type: biochemical; settings: for Conclusion: type of inhibition versus IMP / Conclusion: type of inhibition versus NAD+: Table S4
From the text: There are three important mechanisms of enzyme inhibition, viz. competitive, non-competitive and uncompetitive inhibition. […] The initial velocity data were plotted using Lineweaver-Burk equation using GraphPad Prism.
The data is plotted using the Lineweaver-Burk equation.

HsIMPDH-I = test system: HsIMPDH-I; design: method as in ref 4 (a number printed in a supplementary file, which may have a reference list of its own: not looked up in the article's list); settings: HsIMPDH-I ref 4; cited from earlier work
HsIMPDH-II = test system: HsIMPDH-II; design: method as in ref 4 (a number printed in a supplementary file, which may have a reference list of its own: not looked up in the article's list); settings: HsIMPDH-II ref 4; cited from earlier work
HpIMPDH [3] = target: T1, HpIMPDH; type: biochemical; settings: 100 nM enzyme
From the text: Before carrying out enzymatic assays, it is important to determine the enzyme activity.
The initial velocity data was fitted using Michaelis–Menten equation (1) with the help of GraphPad Prism to calculate enzyme kinetic parameters.1 V=Vmax[S]/KM+[S] where, V is velocity, Vmax is maximum velocity, [S] is substrate concentration, KM is Michaelis–Menten constant.

SpIMPDH = test system: SpIMPDH; design: method as in ref 9 (a number printed in a supplementary file, which may have a reference list of its own: not looked up in the article's list); settings: SpIMPDH ref 9; cited from earlier work
CpIMPDH = test system: CpIMPDH; design: method as in ref 8 (a number printed in a supplementary file, which may have a reference list of its own: not looked up in the article's list); settings: CpIMPDH ref 8; cited from earlier work
TfIMPDH = TfIMPDH ref 6; cited from earlier work
AgIMPDH = test system: AgIMPDH; design: method as in ref 5 (a number printed in a supplementary file, which may have a reference list of its own: not looked up in the article's list); settings: AgIMPDH ref 5; cited from earlier work
PaIMPDH = PaIMPDH ref 7; cited from earlier work
HpIMPDH [4] = target: T1, HpIMPDH; design: method as in ref 3 (a number printed in a supplementary file, which may have a reference list of its own: not looked up in the article's list); settings: previously reported HpIMPDH data ref 3; cited from earlier work
BbIMPDH = test system: BbIMPDH; design: method as in ref 10 (a number printed in a supplementary file, which may have a reference list of its own: not looked up in the article's list); settings: BbIMPDH ref 10; cited from earlier work
[5] = IC50, HpIMPDH inhibition, 100 nM HpIMPDH, NAD+ 300 µM, IMP 250 µM

T1 sequence (P56088 whole entry): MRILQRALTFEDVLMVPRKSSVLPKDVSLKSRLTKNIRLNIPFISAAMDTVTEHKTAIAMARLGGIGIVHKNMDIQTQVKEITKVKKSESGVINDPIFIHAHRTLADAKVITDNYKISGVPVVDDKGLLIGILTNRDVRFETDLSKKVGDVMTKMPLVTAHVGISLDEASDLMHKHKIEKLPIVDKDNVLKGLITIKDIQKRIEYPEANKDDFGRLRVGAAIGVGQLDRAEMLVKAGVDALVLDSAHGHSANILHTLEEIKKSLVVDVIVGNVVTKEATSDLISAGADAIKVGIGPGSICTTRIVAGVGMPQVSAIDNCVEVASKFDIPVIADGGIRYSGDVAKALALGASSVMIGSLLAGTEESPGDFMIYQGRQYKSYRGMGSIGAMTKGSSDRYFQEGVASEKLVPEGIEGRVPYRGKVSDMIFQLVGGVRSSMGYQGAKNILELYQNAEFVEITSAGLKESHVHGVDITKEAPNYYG

| Compound | IC50 (HpIMPDH [1]; [5]) [µM] | Mechanism of HpIMPDH inhibition against both IMP and NAD+ (HpIMPDH [2]) | Conclusion: type of inhibition versus IMP (HpIMPDH [2]) | Conclusion: type of inhibition versus NAD+ (HpIMPDH [2]) | IC50 value (in words) (HpIMPDH [1]; HpIMPDH) | IC50 (HpIMPDH [1]; IC50, inhibition profile of indole based compounds, Table S3) [µM] | Km (HsIMPDH-I) [µM] | Km (HsIMPDH-II) [µM] | kcat of HpIMPDH for the substrate (HpIMPDH [3]) [S^−1] | Km (HpIMPDH [3]; varying NAD+, IMP 500 µM constant) [µM] | Km (SpIMPDH) [µM] | Km (CpIMPDH) [µM] | Km (TfIMPDH) [µM] | Km (AgIMPDH) [µM] | Km (PaIMPDH) [µM] | Km (HpIMPDH [4]) [µM] | Km (BbIMPDH) [µM] |
| --- | --- | --- | --- | --- | --- | --- | --- | --- | --- | --- | --- | --- | --- | --- | --- | --- | --- |
| O=C(Cn1c(-c2ccccn2)nc2ccccc21)Nc1ccc2ccccc2c1 [Compound 1, reference compound] | 0.155 ± 0.082 | uncompetitive | Un-competitive inhibition | Un-competitive inhibition | – | – | – | – | – | – | – | – | – | – | – | – | – |
| O=C(Cn1cc(C(=O)Nc2cccnc2)c2ccccc21)Nc1ccc(Br)cc1 [Compound 2] | 1.89 ± 0.42 | noncompetitive inhibition | Non-competitive inhibition | Non-competitive inhibition | micromolar range | 1.88 | – | – | – | – | – | – | – | – | – | – | – |
| NC(=O)c1ccc[n+]([C@@H]2O[C@H](COP(=O)([O-])OP(=O)(O)OC[C@H]3O[C@@H](n4cnc5c(N)ncnc54)[C@H](O)[C@@H]3O)[C@@H](O)[C@H]2O)c1 [NAD^+] | – | – | – | – | – | – | 32 ± 3.4 | 46 ± 2.8 | 5.96 ± 0.53 | 76.4 ± 1.09 | 1180 ± 400 | 150 ± 20 | 150 ± 30 | 280 ± 24.7 | 1760 ± 109 | 73 ± 6 | 1100 ± 160 |
